Test results published in patent publication US6755971B2, “Microbiological removal of bromine salts from fluid streams” (AKZO Nobel N.V., priority 1999, dated 2004).

Legend:
[1] = system: micro-organisms immobilised on pumice particles; assay: Influence of high salt concentration on microbial activity (batch); type: cell-based
Experimental: (§1) Batch experiments were conducted in 110 ml gas-tight glass vessels, which were filled with 10 ml of mineral medium. The gas-phase and the medium in the vessels were flushed with nitrogen. Hydrogen gas was supplied by injection of a known amount using a gas-tight syringe (up to 150 kPa). Vessels were incubated at 30° C. in a shaking water bath. Micro-organisms immobilised on pumice particles were withdrawn from the gas-lift reactor whenever steady state conditions were reached and washed twice with phosphate buffer (20 mM) before use. These immobilised micro-organisms were used to inoculate the cultures. Various salt concentrations in the batch cultures were obtained by adding various amounts of sodium chloride. Sodium sulfite was added to cultures in various amounts from a freshly prepared stock solution. The test vessels for the growth experiments were inoculated by injecting 5 ml of effluent from the reactor. The micro-organisms in the effluent were washed three times with phosphate buffer (20 mM) and concentrated to 0.5 ml by centrifugation (10,000 g, 15 min). 4.4 Analytical Procedures
The effect of increased salt concentration in the reactor was investigated in batch experiments. The activity of the micro-organisms immobilised on pumice particles in the batch experiment decreased only slightly with increasing salinity, as indicated in FIG. 19. […]

mixed culture = assay: Growth experiments with various carbon sources; type: cell-based; details: 24 mM substrate, 10 mM chlorate, 30° C., turbidity; note: key: ++: Extensive growth; +: Growth (based on turbidity of culture); +/−: Slight increase in turbidity
Experimental: Growth of the mixed culture with different carbon and energy sources was determined in 100 ml serum bottles with gas-tight caps filled up to 75% of their volume with mineral salts medium and 24 mM of the substrate and incubated at 30° C. Chlorate was added at a concentration of 10 mM. Growth was followed by determination of the turbidity (visually). The cultures were made anoxic by being flushed with nitrogen gas for approximately 5 minutes. Growth was followed for a maximum period of 2 months.

[2] = system: micro-organisms immobilised on pumice particles; assay: Bacterial growth inhibition test with sulfite; type: cell-based; details: 5 days
Experimental: as §1
Besides chlorate and […] the waste water also contains small amounts of hypochlorite. Since hypochlorite is a biocide, removal of this compound before biological treatment is necessary. Hypochlorite can be removed instantly from the waste water using sulfite as reductant. This procedure could be used prior to the biological treatment. To examine whether sulfite is toxic to micro-organisms immobilised on the pumice particles, a toxicity test was performed. Growth was determined after 5 days, and was compared to a control culture without sulfite. The growth was determined by measuring the formation of chloride.

[3] = system: chlorate-reducing mixed culture; details: up to a concentration of 12 mM, separate experiments
Experimental: These cultures were inoculated with 1 ml of an exponentially growing culture. […] These cultures were anaerobically incubated at 30° C. in a water bath. The turbidity was measured using a Nephelometer (Hack Ratio XR, Loveland, USA). The turbidity was plotted against time for each of the concentrations and the control. The growth was derived from the slope of the regression line in a plot of In OD 660 versus time. The percentage inhibition of the growth at each concentration was calculated. […] Confidence limits were calculated on the basis of Fieller's theorem. All computations were performed using a statistical software program (SAS, Cary, N.C., USA).
Growth was followed for approximately 8 hours.

Q: `[Cl-].[Na+]` [sodium chloride] was tested. Which “effects of increased salinity on activity” value ([1]; 40 g/l) did it give?
A: substantial

Q: What about the “activity (chlorate reduction) relative to the maximum” value ([1]; concentration of 30 μl sodium chloride, unacclimatised micro-organisms) of the same molecule?
A: more than 80%

Q: Which Growth (mixed culture) does the source give for `CCC(=O)O` [propionate] here?
A: ++

Q: `CC(=O)O` [acetate] was tested. Which Growth (mixed culture) did it give?
A: ++

Q: How did the Growth inhibition ([2]; sulfite 15 mg/l) turn out when `O=S([O-])[O-].[Na+].[Na+]` [Sulfite, sodium sulfite] was run?
A: 4%

Q: What about the Growth inhibition ([2]; sulfite 45 mg/l) of the same molecule?
A: 0%

Q: And the Growth inhibition ([2]; sulfite 135 mg/l)?
A: 6%

Q: What about the Growth inhibition ([2]; sulfite 405 mg/l) of the same molecule?
A: 7%

Q: `[O-][Cl+2]([O-])O` [chlorate] was tested. Which “toxicity to the mixed culture” value [3] did it give?
A: not toxic

Q: With `O=C(O)CC(O)C(=O)O` (centres unmarked) [malate] as the molecule, how does the Growth (mixed culture) read?
A: ++

Q: `CC(O)C(=O)O` (centres unmarked) [lactate] was tested. Which Growth (mixed culture) did it give?
A: +

Q: With `O=C(O)CCC(=O)O` [succinate] as the molecule, how does the Growth (mixed culture) read?
A: ++

Q: `NCC(=O)O` [glycine] was tested. Which Growth (mixed culture) did it give?
A: +/−

Q: Which Growth (mixed culture) does the source give for `CCO` [ethanol] here?
A: ++
